From patent US8450304B2, “4-azetidinyl-1-heteroaryl-cyclohexanol antagonists of CCR2” (Janssen Pharmaceutica N.V., priority 2008, dated 2013)

Molecular target: T1, CCR2 (Homo sapiens, UniProt P41597)
T1 construct: host or cells: THP-1 (human monocytic cell line), whole cells
Assay: MCP-1 Receptor Binding Assay in THP-1 Cells
Details: 0.5 nM 125I labeled MCP-1, 2 hours at 30° C., read-out: Inhibition of MCP-1 Binding IC50, CCR2 Binding
Experimental: Compounds of the invention were subjected to various representative biological tests. […] MCP-1 Receptor Binding Assay in THP-1 Cells
Human monocytic cell line THP-1 cells were obtained from American Type Culture Collection (Manassas, Va., USA). […] The cell density was maintained […].
1 μM cold MCP-1 was used for nonspecific binding.

T1 sequence (P41597 whole entry): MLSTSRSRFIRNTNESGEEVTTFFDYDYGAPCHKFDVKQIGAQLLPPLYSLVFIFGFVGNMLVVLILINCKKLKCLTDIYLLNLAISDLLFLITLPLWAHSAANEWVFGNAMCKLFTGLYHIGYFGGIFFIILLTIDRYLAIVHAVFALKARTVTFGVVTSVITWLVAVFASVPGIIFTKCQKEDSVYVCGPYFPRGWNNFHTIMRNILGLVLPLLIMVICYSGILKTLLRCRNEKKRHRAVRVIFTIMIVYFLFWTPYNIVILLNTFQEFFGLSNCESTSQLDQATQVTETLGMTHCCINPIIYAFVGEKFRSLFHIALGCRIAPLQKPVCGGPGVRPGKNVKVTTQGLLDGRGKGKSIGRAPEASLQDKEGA

| IC50 [nM] | SMILES |
| --- | --- |
| 1900 | O=C(CNC(=O)c1cccc(C(F)(F)F)c1)NC1CN(C2CCC(O)(c3ccc(OCc4ccccc4)nc3)CC2)C1 (single isomer, unassigned) [Example 7a, N-({1-[4-(6-Benzyloxy-pyridin-3-yl)-4-hydroxy-cyclohexyl]-azetidin-3-ylcarbamoyl}-methyl)-3-trifluoromethyl-benzamide] |
| 3100 | O=C(CNC(=O)c1cccc(C(F)(F)F)c1)NC1CN(C2CCC(O)(c3ccc(Br)cn3)CC2)C1 (single isomer, unassigned) [Example 25a, N-({1-[4-(5-Bromo-pyridin-2-yl)-4-hydroxy-cyclohexyl]-azetidin-3-ylcarbamoyl}-methyl)-3-trifluoromethyl-benzamide] |
| 1100 | COc1ncc(C2(O)CCC(N3CC(NC(=O)CNC(=O)c4cccc(C(F)(F)F)c4)C3)CC2)cn1 (single isomer, unassigned) [Example 28a, N-({1-[4-Hydroxy-4-(2-methoxy-pyrimidin-5-yl)-cyclohexyl]-azetidin-3-ylcarbamoyl}-methyl)-3-trifluoromethyl-benzamide] |
| 24000 | COc1ncc(C2(O)CCC(N3CC(NC(=O)CNC(=O)c4cccc(C(F)(F)F)c4)C3)CC2)c(OC)n1 (single isomer, unassigned) [Example 29a, N-({1-[4-(2,4-Dimethoxy-pyrimidin-5-yl)-4-hydroxy-cyclohexyl]-azetidin-3-ylcarbamoyl}-methyl)-3-trifluoromethyl-benzamide] |
| 440 | Cn1cc(Br)c(C2(O)CCC(N3CC(NC(=O)CNC(=O)c4cccc(C(F)(F)F)c4)C3)CC2)n1 (single isomer, unassigned) [Example 31a, N-({1-[4-(4-Bromo-1-methyl-1H-pyrazol-3-yl)-4-hydroxy-cyclohexyl]-azetidin-3-ylcarbamoyl}-methyl)-3-trifluoromethyl-benzamide] |
| 240 | O=C(CNC(=O)c1cccc(C(F)(F)F)c1)NC1CN(C2CCC(O)(c3ncc(CO)s3)CC2)C1 (single isomer, unassigned) [Example 35a, N-({1-[4-Hydroxy-4-(5-hydroxymethyl-thiazol-2-yl)-cyclohexyl]-azetidin-3-ylcarbamoyl}-methyl)-3-trifluoromethyl-benzamide] |
| 3.8 | O=C(CNC(=O)c1cccc(C(F)(F)F)c1)NC1CN(C2CCC(O)(c3nc4ccc(Br)cc4s3)CC2)C1 (single isomer, unassigned) [Example 36a, N-({1-[4-(6-Bromo-benzothiazol-2-yl)-4-hydroxy-cyclohexyl]-azetidin-3-ylcarbamoyl}-methyl)-3-trifluoromethyl-benzamide] |
| 370 | Cc1csc(C2(O)CCC(N3CC(NC(=O)CNC(=O)c4cccc(C(F)(F)F)c4)C3)CC2)n1 (single isomer, unassigned) [Example 38a, N-({1-[4-Hydroxy-4-(4-methyl-thiazol-2-yl)-cyclohexyl]-azetidin-3-ylcarbamoyl}-methyl)-3-trifluoromethyl-benzamide] |
| 200 | Cc1ncc(C2(O)CCC(N3CC(NC(=O)CNC(=O)c4cccc(C(F)(F)F)c4)C3)CC2)s1 (single isomer, unassigned) [Example 41a, N-({1-[4-Hydroxy-4-(2-methyl-thiazol-5-yl)-cyclohexyl]-azetidin-3-ylcarbamoyl}-methyl)-3-trifluoromethyl-benzamide] |
| 340 | C#Cc1ncc(C2(O)CCC(N3CC(NC(=O)CNC(=O)c4cccc(C(F)(F)F)c4)C3)CC2)s1 (single isomer, unassigned) [Example 44a, N-({1-[4-(2-Ethynyl-thiazol-5-yl)-4-hydroxy-cyclohexyl]-azetidin-3-ylcarbamoyl}-methyl)-3-trifluoromethyl-benzamide] |
| 660 | C[S+]([O-])c1ncc(C2(O)CCC(N3CC(NC(=O)CNC(=O)c4cccc(C(F)(F)F)c4)C3)CC2)s1 (single isomer, unassigned) [Example 46, N-({1-[4-Hydroxy-4-(2-methanesulfinyl-thiazol-5-yl)-cyclohexyl]-azetidin-3-ylcarbamoyl}-methyl)-3-trifluoromethyl-benzamide] |
| 260 | CS(=O)(=O)c1ncc(C2(O)CCC(N3CC(NC(=O)CNC(=O)c4cccc(C(F)(F)F)c4)C3)CC2)s1 (single isomer, unassigned) [Example 47a, N-({1-[4-Hydroxy-4-(2-methanesulfonyl-thiazol-5-yl)-cyclohexyl]-azetidin-3-ylcarbamoyl}-methyl)-3-trifluoromethyl-benzamide] |
| 90 | Cc1cc(C2(O)CCC(N3CC(NC(=O)CNC(=O)c4cccc(C(F)(F)F)c4)C3)CC2)sn1 (single isomer, unassigned) [Example 58a, N-({1-[4-Hydroxy-4-(3-methyl-isothiazol-5-yl)-cyclohexyl]-azetidin-3-ylcarbamoyl}-methyl)-3-trifluoromethyl-benzamide] |
| 37 | Cc1ccc(C2(O)CCC(N3CC(NC(=O)CNC(=O)c4cc(F)cc(C(F)(F)F)c4)C3)CC2)cn1 (single isomer, unassigned) [Example 64a, 3-Fluoro-N-({1-[4-hydroxy-4-(6-methyl-pyridin-3-yl)-cyclohexyl]-azetidin-3-ylcarbamoyl}-methyl)-5-trifluoromethyl-benzamide] |
| 330 | Cc1ccc(C2(O)CCC(N3CC(NC(=O)CNC(=O)c4cc(C(F)(F)F)cc(C(F)(F)F)c4)C3)CC2)cn1 (single isomer, unassigned) [Example 66a, N-({1-[4-Hydroxy-4-(6-methyl-pyridin-3-yl)-cyclohexyl]-azetidin-3-ylcarbamoyl}-methyl)-3,5-bis-trifluoromethyl-benzamide] |
| 370 | O=C(CNC(=O)c1cc(C(F)(F)F)cc(C(F)(F)F)c1)NC1CN(C2CCC(O)(c3nccs3)CC2)C1 (single isomer, unassigned) [Example 67a, N-{[1-(4-Hydroxy-4-thiazol-2-yl-cyclohexyl)-azetidin-3-ylcarbamoyl]-methyl}-3,5-bis-trifluoromethyl-benzamide] |
| 240 | Cc1ccc(C2(O)CCC(N3CC(NC(=O)CNC(=O)c4cc(C(F)(F)F)ccc4C(F)(F)F)C3)CC2)cn1 (single isomer, unassigned) [Example 69a, N-({1-[4-Hydroxy-4-(6-methyl-pyridin-3-yl)-cyclohexyl]-azetidin-3-ylcarbamoyl}-methyl)-2,5-bis-trifluoromethyl-benzamide] |
| 590 | Cc1ccc(C2(O)CCC(N3CC(NC(=O)CNC(=O)c4cc(C(F)(F)F)ccc4Cl)C3)CC2)cn1 (single isomer, unassigned) [Example 70a, 2-Chloro-N-({1-[4-hydroxy-4-(6-methyl-pyridin-3-yl)-cyclohexyl]-azetidin-3-ylcarbamoyl}-methyl)-5-trifluoromethyl-benzamide] |
| 190 | O=C(CNC(=O)c1cccc(C(F)(F)F)c1)NC1CN(C2CCC(O)(c3cccnc3)CC2)C1 (centres unmarked) [Example 15, N-{[1-(4-Hydroxy-4-pyridin-3-yl-cyclohexyl)-azetidin-3-ylcarbamoyl]-methyl}-3-trifluoromethyl-benzamide] |

| SMILES | IC50 [nM] |
| --- | --- |
| C[Si](C)(C)c1ncc(C2(O)CCC(N3CC(NC(=O)CNC(=O)c4cccc(C(F)(F)F)c4)C3)CC2)s1 (single isomer, unassigned) [Example 39a, N-({1-[4-Hydroxy-4-(2-trimethylsilanyl-thiazol-5-yl)-cyclohexyl]-azetidin-3-ylcarbamoyl}-methyl)-3-trifluoromethyl-benzamide] | 13 |
